Patent US20050181516A1, “Bioequivalence determination using expression profiling” (priority 2002, published 2005)
“Also recorded” adds a separate entry of the source.

System: gene expression (mRNA) in peripheral blood (lymphocytes)
Experiment: Gene expression profiling (Affymetrix DNA microarrays) of blood samples of psoriatic patients before and after oral ASM981
Assay type: in vivo, human
Details: for Mean fold variation: day 13/14 vs baseline
Protocol: The dose used was 60 mg/day, given as 30 mg twice a day (b.i.d.). To make this dose the […] tablets were cut in half using a special cutter (Tablettenteiler NR.96) so as to obtain 30 mg of ASM981 or a matched amount of placebo.
ASM981 was evaluated as treatment for psoriasis using an oral dose of 60 mg (30 mg b.i.d) during a 4 weeks clinical study. The oral formulation used was a highly standardized oral dosage form that could be produced in large amounts and with a highly uniform composition, this was oral formulation A.
The cohort included 10 patients; 8 received oral formulation A and 2 received a placebo. Blood samples were collected before the first administration to establish the gene expression baseline and on days 13 or 14 after treatment with ASM981 or placebo and submitted to gene expression analysis in order to gain insights into the mechanisms of action of the compound.
The RNA from each of the blood samples was extracted and tested on individual DNA microarrays, thus allowing, for each patient, a comparison of gene expression before and after ASM981 treatment. […] Genes that were consistently modulated, i.e., change greater then a factor of two, were sorted in functional categories. Table 4 lists all the identified genes with their symbol, Unigene cluster number, protein accession number and the GenBank accession number for the sequence used to design the Affymetrix probes.
The extraction of the RNA from the samples, the preparation of the target, the hybridization and the analysis of the arrays, were performed according to the methods and protocols recommended by Affymetrix. Total RNA was extracted from the blood samples (lymphocytes) collected on days 0 and 14 using TRIZOL™ (Life Technologies), and purified through RNEASY™ columns (Qiagen) as needed. Good quality total RNA ([…]) was used to synthesize double-stranded cDNA using the SUPERSCRIPT CHOICE SYSTEM™ (Life Technologies). The cDNA was then in vitro transcribed (MEGASCRIPT™ T7 Kit, Ambion) to form biotin-labeled cRNA. The quality of the cRNA was checked on a test array according to the recommendation of Affymetrix. Next, […] of labeled cRNA were hybridized to the probe arrays for 16 hours at 45° C. Arrays were then washed according to the EukGE-WS2 protocol (Affymetrix), and stained with […] of streptavidin-phycoerythrin conjugate (Molecular Probes). The signal was antibody amplified with 2 mg/mL acetylated BSA (Life Technologies), 100 mM MES, 1 M [Na+], 0.05% Tween 20, 0.005% Antiofoam (Sigma), 0.1 mg/mL goat IgG and 0.5 mg/mL biotinylated antibody and re-stained with the streptavidin solution. After washing, the arrays were scanned twice with the GENE ARRAY® scanner (Affymetrix).
The data were analyzed comparing, for each individual patient, the gene expression levels before and after treatment. Only genes that were consistently modulated in at least 5 patients were considered as relevant. These variations were also compared with the gene expression changes observed in the placebo treated patients. During analysis, one chip (patient 44 before treatment) appeared to have very few correctly hybridized genes, and to introduce a bias into the analysis. This pair was excluded to establish average fold change.

CC[C@@H]1/C=C(\C)C[C@H](C)C[C@H](OC)[C@H]2O[C@@](O)(C(=O)C(=O)N3CCCC[C@H]3C(=O)O[C@H](/C(C)=C/[C@@H]3CC[C@H](Cl)[C@H](OC)C3)[C@H](C)[C@@H](O)CC1=O)[C@H](C)C[C@@H]2OC [ASM981, 33-Epichloro-33-desoxy-ascomycin]
Mean fold variation (4-1BB ligand (TNFSF9) mRNA, blood): +2.3 fold
Mean fold variation (ADP/ATP translocase (SLC25A6) mRNA, blood): −3.7 fold
Mean fold variation (ALu RNA binding protein (SRP14) mRNA, blood): −2.9 fold
Mean fold variation (B7 protein (B7) mRNA, blood): +2.9 fold
Mean fold variation (BAP 31 (DXS1357E) mRNA, blood): −9.2 fold
Mean fold variation (BRCA2 (gene symbol ARPC2) mRNA, blood): −6.5 fold
Mean fold variation (Butyrophilin BTF5 (BTN3A1) mRNA, blood): −10.6 fold
Mean fold variation (CAMLG (calcium modulating cyclophilin ligand) mRNA, blood): −5.2 fold
Mean fold variation (CAPL/S100A4 mRNA, blood): −37.8 fold
Mean fold variation (CDC10 homologue (CDC10) mRNA, blood): −6 fold
Mean fold variation (COX6B mRNA, blood): −13.6 fold
Mean fold variation (CSF-1 (CSF1) mRNA, blood): +3.1 fold
Mean fold variation (Calmodulin (CALM2) mRNA, blood): −28.8 fold
Mean fold variation (Clone × 101 (MAP1A) mRNA, blood): +2.2 fold
Mean fold variation (Cyclin D2 (CCND2) mRNA, blood): −16.6 fold
Mean fold variation (Cyclin D3 (CCND3) mRNA, blood): −7.2 fold
Mean fold variation (Cystatin A (CSTA) mRNA, blood): −2.4 fold
Mean fold variation (Cystatin C (CST3) mRNA, blood): −25 fold
Mean fold variation (Cytochrome c oxidase subunit IV (COX4) mRNA, blood): −15.8 fold
Mean fold variation (Cytochrome c oxidase subunit VIc (COX6C) mRNA, blood): −21.1 fold
Mean fold variation (DARC (FY) mRNA, blood): +7 fold
Mean fold variation (EF-1, Elongation factor 1 delta (EEF1D) mRNA, blood): −12.4 fold
Mean fold variation (Epididymal secretory protein mRNA, blood): −19.6 fold
Mean fold variation (FC-epsilon binding protein Galectin 3 (LGALS3) mRNA, blood): −21 fold
Mean fold variation (Farnesyl transferase (FNTA) mRNA, blood): −9 fold
Mean fold variation (Ferritin (FTL) mRNA, blood): −4.4 fold
Mean fold variation (G gamma 11 (GNG11) mRNA, blood): −6.2 fold
Mean fold variation (GPR-9 CCR9 mRNA, blood): +3.4 fold
Mean fold variation (Gamma actin (ACTG1) mRNA, blood): −3.4 fold
Mean fold variation (Glutamine synthase (GLUL) mRNA, blood): −2.6 fold
Mean fold variation (Glutathione peroxidase mRNA, blood): −5.4 fold
Mean fold variation (HLA-DR (HLA-DRA) mRNA, blood): −3.2 fold
Mean fold variation (HLA-E mRNA, first of 2 sequences, blood): −23.4 fold
Mean fold variation (HLA-E mRNA, second of 2 sequences, blood): −4.2 fold
Mean fold variation (HLA-F mRNA, blood): −10.2 fold
Mean fold variation (HLA-I A 26 (HLA-A) mRNA, blood): −4.1 fold
Mean fold variation (HLA-I C (HLA-C) mRNA, blood): −2.9 fold
Mean fold variation (HLH G0S8 (RGS2) mRNA, blood): −10.8 fold
Mean fold variation (HMG-17 (HMG17) mRNA, blood): −15.5 fold
Mean fold variation (Histone H2 (H2AFL) mRNA, blood): −42.6 fold
Mean fold variation (Histone H3.3 (H3F3A) mRNA, blood): −6.6 fold
Mean fold variation (Ii Invariant chain, CD74 mRNA, blood): −46.4 fold
Mean fold variation (KIAA0 151 (IKKE) mRNA, blood): +2.5 fold
Mean fold variation (KIAA0055 (USP8) mRNA, blood): +3.7 fold
Mean fold variation (Kallistatin mRNA, blood): +3.3 fold
Mean fold variation (L-selectin (SELL) mRNA, blood): −46.6 fold
Mean fold variation (LAMP-1 (LAMP1) mRNA, blood): −19.1 fold
Mean fold variation (LAPT5 Lysosomal associated protein (LAPTM5) mRNA, blood): −12.5 fold
Mean fold variation (LFA1a (ITGAL) mRNA, blood): −16.1 fold
Mean fold variation (LFA1b (ITGB2) mRNA, blood): −8.3 fold
Mean fold variation (Lactate dehydrogenase (LDHB) mRNA, blood): −17.1 fold
Mean fold variation (Laminin receptor (LAMR1) mRNA, blood): −7.3 fold
Mean fold variation (Leukotriene A4 hydrolase (LTA4H) mRNA, blood): −8 fold
Mean fold variation (Lone HH109 mRNA, blood): +2 fold
Mean fold variation (MIC-2 CD99 (MIC2) mRNA, blood): −65 fold
Mean fold variation (MTf1 Mitochondrial transcription factor (TFAM) mRNA, blood): +3.2 fold
Mean fold variation (Macrophilin 12 FKBP (FKBP1A) mRNA, blood): −66.2 fold
Mean fold variation (Mitochondrial ubiquinone binding protein (first entry, M26730) mRNA, blood): −5.4 fold
Mean fold variation (Mitochondrial ubiquinone binding protein (second entry of Table 11) mRNA, blood): +6.6 fold
Mean fold variation (Myosin light chain non muscle type mRNA, blood): −15.6 fold
Mean fold variation (Myosin regulatory light chain (MLCB) mRNA, blood): −8.5 fold
Mean fold variation (NRGN Neuragranin mRNA, blood): −3.1 fold
Mean fold variation (Neutrophil cytochrome b light chain (CYBA) mRNA, blood): −34.7 fold
Mean fold variation (Non muscle-type cofilin (CFL1) mRNA, blood): −2.9 fold
Mean fold variation (Nuclear factor Nf-IL6 (CEBPB) mRNA, blood): −6.8 fold
Mean fold variation (Nucleosome assembly protein (NAP1L1) mRNA, blood): −7.7 fold
Mean fold variation (PF-4 (PF4V1) mRNA, blood): −5.2 fold
Mean fold variation (Platelet glycoprotein IIb (ITGA2B) mRNA, blood): −5.2 fold
Mean fold variation (Platelet glycoprotein Ib mRNA, blood): −26.6 fold
Mean fold variation (Prosaposin (PSAP) mRNA, blood): −56.1 fold
Mean fold variation (Prostaglandin endoperoxide synthase 1 (PTGS1) mRNA, blood): −45.9 fold
Mean fold variation (Proteoglycan core protein (PRG1) mRNA, blood): +49 fold
Mean fold variation (Prothymosin alpha (PTMA) mRNA, blood): −71.7 fold
Mean fold variation (Pyrroline5 carboxylate reductase (PYCR1) mRNA, blood): +34 fold
Mean fold variation (RANTES (SCYA5) mRNA, blood): −5.3 fold
Mean fold variation (RSU (RSU1) mRNA, blood): −7.2 fold
Mean fold variation (Ribosomal protein L 12 (RPL12) mRNA, blood): −4.8 fold
Mean fold variation (Ribosomal protein S 7 (RPS7) mRNA, blood): −6.4 fold
Mean fold variation (SABP1 (elk4) (ELK4) mRNA, blood): +6.4 fold
Mean fold variation (Scaffold attachment protein (HNRPU) mRNA, blood): −7.1 fold
Mean fold variation (Selectin P ligand SELPLG mRNA, blood): −17.1 fold
Mean fold variation (Serine Threonine phosphatase (PPP2R1B) mRNA, blood): +5.1 fold
Mean fold variation (Single stranded DNA binding (SSBP) mRNA, blood): −8.5 fold
Mean fold variation (Small nuclear ribonucleoprotein (SNRPN) mRNA, blood): −2 fold
Mean fold variation (TAX REB 67 (ATF4) mRNA, blood): −22.6 fold
Mean fold variation (TF lia transcription factor mRNA, blood): −16.4 fold
Mean fold variation (TRMP2 Apolipoprotein J mRNA, blood): −6.8 fold
Mean fold variation (Taurine transporter (SLC6A6) mRNA, blood): +4.4 fold
Mean fold variation (Thioredoxin binding protein/Vit. D3 Up regulated protein (VDUP1) mRNA, blood): −5.4 fold
Mean fold variation (Thromboxane A2 receptor (TBXA2R) mRNA, blood): −9.3 fold
Mean fold variation (Thymosin beta (TMSB10) mRNA, blood): −7.5 fold
Mean fold variation (Transaldolase mRNA, blood): −3.1 fold
Mean fold variation (Translationally controlled tumor protein (TPT1) mRNA, blood): −3.2 fold
Mean fold variation (Tyrosine phosphatase (huPP1) (PTP4A2) mRNA, blood): −5.7 fold
Mean fold variation (Ubiquitin like protein (UBL4) mRNA, blood): −21.5 fold
Mean fold variation (Vacuolar H + ATPase (ATP6N1A) mRNA, blood): +1.8 fold
Mean fold variation (Vimentin (VIM) mRNA, blood): −7 fold
Mean fold variation (Wilms tumor related protein mRNA, blood): −4 fold
Mean fold variation (Zinc finger protein ZNF141 mRNA, blood): +3.2 fold
CD8+ T lymphocytes in the blood (after treatment): slightly more represented
proportion of T cell expressing CD3 in the blood (after treatment): does not affect
expression of genes of the Macrolactam target pathway (Macrophilin 12), cellular activation and proliferation (Histone2, Histone 3.3, cyclin D2) (among blood cells): down regulate
FKBP12 at the level of RNA synthesis (blood): strongly down regulated
Kallistatin expression (blood): up-regulated
expression of inflammatory mediators (Leukotriene A4 hydrolase, Prostaglandin endoperoxide synthase) (blood cells): strongly down regulate
genes involved in asthma physiopathology (RANTES, GALECTIN-3, Thromboxane A2 receptor) (blood cells): markedly down regulated
genes necessary for chemotaxis and cellular migration, including LFA-1, P-Selectin ligand and L-Selectin (blood cells): dramatic down regulation
CD3 expression level (blood, after treatment): unchanged
granzyme A and B expression (blood, after treatment): increase
genes involved in any known adverse side effect or toxicity pathway (expression profile, blood): no consistent pattern of alteration; also recorded: No gene linked to a possible adverse effect or to a toxicity pathway was found to be regulated
toxic effect in the expression profile (expression profile, blood): No obvious toxic effect
Mean fold variation (pM5 (PM5) mRNA, blood): −5.7 fold
